Source: ChEMBL document CHEMBL4840375, “Ring A/B-Modified 17β-Hydroxywithanolide Analogues as Antiproliferative Agents for Prostate Cancer and Potentiators of Immunotherapy for Renal Carcinoma and Melanoma” (J Nat Prod, 2021)

Columns and labels:
[1] = test system: HFF; assay: Cytotoxicity against human HFF cells assessed as reduction in cell viability incubated for 72 hrs by MTT assay; format: cell-based
[2] = test system: CWR22R; assay: Antiproliferative activity against human 22Rv1 cells assessed as inhibition of cell proliferation incubated for 72 hrs by MTT assay; format: functional, cell-based; conditions: 22Rv1, 72 h
[3] = test system: M14; assay: Antiproliferative activity against human M14 cells assessed as inhibition of cell proliferation incubated for 72 hrs by MTT assay; format: functional, cell-based; conditions: M14, 72 h
[4] = test system: LNCaP; assay: Antiproliferative activity against human LNCaP cells assessed as inhibition of cell proliferation incubated for 72 hrs by MTT assay; format: functional, cell-based
[5] = test system: SK-MEL-28; assay: Antiproliferative activity against human SK-MEL-28 cells assessed as inhibition of cell proliferation incubated for 72 hrs by MTT assay; format: functional, cell-based; conditions: SK-MEL-28, 72 h
[6] = test system: ACHN; assay: Antiproliferative activity against human ACHN cells assessed as inhibition of cell proliferation incubated for 72 hrs by MTT assay; format: functional, cell-based
[7] = test system: ACHN; assay: Potentiation of TRAIL-induced antiproliferative activity against human ACHN cells assessed as reduction in cell numbers by measuring IC50 pretreated with compound for 2 hrs followed by TRAIL addition and measured after 24 hrs by MTT assay; format: functional, cell-based; further: test concentration or dose not given here
[8] = test system: SK-MEL-28; assay: Antiproliferative activity against human SK-MEL-28 cells assessed as inhibition of cell proliferation incubated for 48 hrs by MTT assay; format: functional, cell-based; conditions: SK-MEL-28, 48 h
[9] = test system: M14; assay: Antiproliferative activity against human M14 cells assessed as inhibition of cell proliferation incubated for 48 hrs by MTT assay; format: functional, cell-based; conditions: M14, 48 h
[10] = test system: SK-MEL-28; assay: Potentiation of poly I:C-induced antiproliferative activity against human SK-MEL-28 cells assessed as reduction in cell numbers by measuring IC50 pretreated with compound for 2 hrs followed by poly I:C addition and measured after 48 hrs by MTT assay; format: functional, cell-based; further: test concentration or dose not given here
[11] = test system: ACHN; assay: Antiproliferative activity against human ACHN cells assessed as inhibition of cell proliferation incubated for 24 hrs by MTT assay; format: functional, cell-based
[12] = test system: M14; assay: Potentiation of poly I:C-induced antiproliferative activity against human M14 cells assessed as reduction in cell numbers by measuring IC50 pretreated with compound for 2 hrs followed by poly I:C addition and measured after 48 hrs by MTT assay; format: functional, cell-based; further: test concentration or dose not given here
[13] = Selectivity ratio of IC50 for HFF cells to IC50 for human LNCaP cells; format: toxicity; conditions: HFF cells versus LNCaP cells, read-out: Ratio IC50
[14] = Selectivity ratio of IC50 for HFF cells to IC50 for human 22Rv1 cells

| Structure (SMILES) | IC50 [4] | IC50 [5] | IC50 [6] | IC50 [7] | IC50 [8] | IC50 [10] | IC50 [11] | IC50 [1] | IC50 [2] | IC50 [3] | IC50 [9] | IC50 [12] | selectivity ratio [13] | Ratio IC50 [14] |
| --- | --- | --- | --- | --- | --- | --- | --- | --- | --- | --- | --- | --- | --- | --- |
| COc1cccc2c1C(=O)c1c(O)c3c(c(O)c1C2=O)C[C@@](O)(C(=O)CO)C[C@@H]3O[C@H]1C[C@H](N)[C@H](O)[C@H](C)O1 [DOXORUBICIN] |  |  |  |  |  |  |  | 0.15 µM |  |  |  |  |  |  |
| CC(=O)OC[C@]12CC[C@H]3[C@@H](CC=C4CCCC(=O)[C@@]43C)[C@@]1(O)CC[C@@]2(O)[C@@](C)(O)C1CC(C)=C(C)C(=O)O1 (some centres not stated) | > 5 µM | > 5 µM | > 5 µM |  |  |  |  | > 5 µM | > 5 µM | > 5 µM |  |  |  |  |
| CC(=O)OC[C@]12CC[C@H]3[C@@H](C[C@H]4O[C@]45CCCC(=O)[C@]35C)[C@]1(O)CC[C@@]2(O)[C@@](C)(O)C1CC(C)=C(C)C(=O)O1 (some centres not stated) | > 5 µM | > 5 µM | > 5 µM |  |  |  |  | > 5 µM | 2.56 µM | > 5 µM |  |  |  |  |
| CC(=O)OC[C@]12CC[C@H]3[C@@H](C[C@H]4O[C@]45[C@H](O)C=CC(=O)[C@]35C)[C@]1(O)CC[C@@]2(O)[C@@](C)(O)C1CC(C)=C(C)C(=O)O1 (some centres not stated) | 1.74 µM | 3.03 µM | 3.93 µM | 0.27 µM | > 5 µM | 4.72 µM | > 5 µM | > 5 µM | 0.33 µM | > 5 µM | > 5 µM | > 5 µM |  |  |
| CC(=O)OC[C@]12CC[C@H]3[C@@H](CC=C4CC=CC(=O)[C@@]43C)[C@]1(O)CC[C@@]2(O)[C@@](C)(O)C1CC(C)=C(C)C(=O)O1 (some centres not stated) |  | > 5 µM | 3.09 µM | 0.56 µM | > 5 µM | 1.77 µM | > 5 µM | > 5 µM | 0.13 µM | > 5 µM | > 5 µM | 2.81 µM |  |  |
| CC(=O)OC[C@]12CC[C@H]3[C@@H](C[C@@H](OC(C)=O)[C@]45O[C@H]4C=CC(=O)[C@]35C)[C@]1(O)CC[C@@]2(O)[C@@](C)(O)C1CC(C)=C(C)C(=O)O1 (some centres not stated) | > 5 µM | > 5 µM | > 5 µM |  |  |  |  | > 5 µM | 1.37 µM | > 5 µM |  |  |  |  |
| CC(=O)OC[C@]12CC[C@H]3[C@@H](C[C@@H]4O[C@@]45CC=CC(=O)[C@]35C)[C@]1(O)CC[C@@]2(O)[C@@](C)(O)C1CC(C)=C(C)C(=O)O1 (some centres not stated) |  | > 5 µM | > 5 µM |  | > 5 µM | 4.56 µM |  | > 5 µM | 0.58 µM | > 5 µM | > 5 µM | > 5 µM |  |  |
| CC(=O)OC[C@]12CC[C@H]3[C@@H](C[C@@H](OC(C)=O)C4=CC=CC(=O)[C@@]43C)[C@]1(O)CC[C@@]2(O)[C@@](C)(O)C1CC(C)=C(C)C(=O)O1 (some centres not stated) | 1 µM | > 5 µM | > 5 µM |  |  |  |  | > 5 µM | 0.63 µM | > 5 µM |  |  |  |  |
| CC(=O)OC[C@]12CC[C@H]3[C@@H](CC(=O)[C@]45O[C@H]4C=CC(=O)[C@]35C)[C@]1(O)CC[C@@]2(O)[C@@](C)(O)C1CC(C)=C(C)C(=O)O1 (some centres not stated) | > 5 µM | > 5 µM | > 5 µM |  |  |  |  | > 5 µM | > 5 µM | > 5 µM |  |  |  |  |
| CC(=O)OC[C@]12CC[C@H]3[C@@H](C[C@H]4O[C@]45[C@@H](O)C=CC(=O)[C@]35C)[C@]1(O)CC[C@@]2(O)[C@@](C)(O)C1CC(C)=C(C)C(=O)O1 (some centres not stated) | 3.52 µM | > 5 µM | > 5 µM |  | > 5 µM | 4.61 µM |  | > 5 µM | 1.53 µM | > 5 µM | > 5 µM | > 5 µM |  |  |
| CC(=O)OC[C@]12CC[C@H]3[C@@H](C[C@H]4O[C@]45[C@H](OC(C)=O)C=CC(=O)[C@]35C)[C@]1(O)CC[C@@]2(O)[C@@](C)(O)C1CC(C)=C(C)C(=O)O1 (some centres not stated) | 1.5 µM | 2.56 µM | 3.31 µM | 0.25 µM | > 5 µM | 2.62 µM | > 5 µM | > 5 µM | 0.21 µM | > 5 µM | > 5 µM | > 5 µM |  |  |
| CC(=O)OC[C@]12CC[C@H]3[C@@H](C[C@H]4O[C@]45CC=CC(=O)[C@]35C)[C@]1(O)CC[C@@]2(O)[C@@](C)(O)C1CC(C)=C(C)C(=O)O1 (some centres not stated) |  | > 5 µM |  | 0.16 µM | > 5 µM | 0.11 µM | > 5 µM | 2.29 µM |  | 1.57 µM | > 5 µM | 0.11 µM | 115 | 75 |
| CC(=O)OC[C@]12CC[C@H]3[C@@H](CC(=O)C4=CC=CC(=O)[C@@]43C)[C@]1(O)CC[C@@]2(O)[C@@](C)(O)C1CC(C)=C(C)C(=O)O1 (some centres not stated) | > 5 µM | > 5 µM | > 5 µM |  | > 5 µM | > 5 µM |  | > 5 µM | 0.5 µM | 2.34 µM | > 5 µM | > 5 µM |  |  |
| CC(=O)OC[C@]12CC[C@H]3[C@@H](C[C@H]4O[C@]45[C@@H](OC(C)=O)C=CC(=O)[C@]35C)[C@]1(O)CC[C@@]2(O)[C@@](C)(O)C1CC(C)=C(C)C(=O)O1 (some centres not stated) | 0.92 µM | 1.55 µM | 1.27 µM | 0.25 µM | 2.73 µM | 1.38 µM | > 5 µM | 1.52 µM | 0.25 µM | > 5 µM | > 5 µM | 1.67 µM |  |  |

Now from value to compound, other results behind:

| IC50 [4] | IC50 [5] | IC50 [6] | IC50 [7] | IC50 [8] | IC50 [10] | IC50 [11] | Structure (SMILES) | IC50 [1] | IC50 [2] | IC50 [3] | IC50 [9] | IC50 [12] | selectivity ratio [13] | Ratio IC50 [14] |
| --- | --- | --- | --- | --- | --- | --- | --- | --- | --- | --- | --- | --- | --- | --- |
| 0.35 µM |  |  |  |  |  |  | CC(=O)OC[C@]12CC[C@H]3[C@@H](CC=C4[C@@H](O)C=CC(=O)[C@@]43C)[C@]1(O)CC[C@@]2(O)[C@@](C)(O)C1CC(C)=C(C)C(=O)O1 (some centres not stated) | > 5 µM | 0.08 µM | 0.45 µM |  |  |  |  |
| 0.68 µM |  |  |  |  |  |  | CC(=O)OC[C@]12CC[C@H]3[C@@H](CC=C4[C@@H](OC(C)=O)C=CC(=O)[C@@]43C)[C@]1(O)CC[C@@]2(O)[C@@](C)(O)C1CC(C)=C(C)C(=O)O1 (some centres not stated) | 2.69 µM | 0.13 µM | 1.43 µM |  |  |  |  |
| > 5 µM | > 5 µM | > 5 µM |  |  |  |  | CC(=O)OC[C@]12CC[C@H]3[C@@H](C[C@H]4O[C@]45C(=O)C=CC(=O)[C@]35C)[C@]1(O)CC[C@@]2(O)[C@@](C)(O)C1CC(C)=C(C)C(=O)O1 (some centres not stated) | > 5 µM | > 5 µM | > 5 µM |  |  |  |  |
| 2.96 µM | > 5 µM | > 5 µM |  |  |  |  | CC(=O)OC[C@]12CC[C@H]3[C@@H](C[C@@H](O)C4=CC=CC(=O)[C@@]43C)[C@]1(O)CC[C@@]2(O)[C@@](C)(O)C1CC(C)=C(C)C(=O)O1 (some centres not stated) | > 5 µM | 1.89 µM | > 5 µM |  |  |  |  |
| > 5 µM | > 5 µM | > 5 µM |  |  |  |  | CC(=O)OC[C@]12CC[C@H]3[C@@H](C[C@H](OC(C)=O)[C@]45O[C@H]4C=CC(=O)[C@]35C)[C@]1(O)CC[C@@]2(O)[C@@](C)(O)C1CC(C)=C(C)C(=O)O1 (some centres not stated) | > 5 µM | 3.08 µM | > 5 µM |  |  |  |  |
|  | > 5 µM | > 5 µM |  | > 5 µM | 4.49 µM |  | CC(=O)OC[C@]12CC[C@H]3[C@@H](CC=C4C=CCC(=O)[C@@]43C)[C@]1(O)CC[C@@]2(O)[C@@](C)(O)C1CC(C)=C(C)C(=O)O1 (some centres not stated) | > 5 µM | 0.97 µM | > 5 µM | > 5 µM | > 5 µM |  |  |
| 2 µM | > 5 µM | > 5 µM |  |  |  |  | CC(=O)OC[C@]12CC[C@H]3[C@@H](C[C@H](OC(C)=O)C4=CC=CC(=O)[C@@]43C)[C@]1(O)CC[C@@]2(O)[C@@](C)(O)C1CC(C)=C(C)C(=O)O1 (some centres not stated) | > 5 µM | 1.14 µM | > 5 µM |  |  |  |  |
| 0.53 µM | > 5 µM | > 5 µM |  |  |  |  | CC(=O)OC[C@]12CC[C@H]3[C@@H](C[C@H](O)[C@]45O[C@H]4C=CC(=O)[C@]35C)[C@]1(O)CC[C@@]2(O)[C@@](C)(O)C1CC(C)=C(C)C(=O)O1 (some centres not stated) | > 5 µM | 0.25 µM | > 5 µM |  |  |  |  |
| > 5 µM | > 5 µM | > 5 µM |  |  |  |  | CC(=O)OC[C@]12CC[C@H]3[C@@H](C[C@@H](O)[C@]45O[C@H]4C=CC(=O)[C@]35C)[C@]1(O)CC[C@@]2(O)[C@@](C)(O)C1CC(C)=C(C)C(=O)O1 (some centres not stated) | > 5 µM | > 5 µM | > 5 µM |  |  |  |  |
| > 5 µM | > 5 µM | > 5 µM |  |  |  |  | CC(=O)OC[C@]12CC[C@H]3[C@@H](C[C@H](O)C4=CC=CC(=O)[C@@]43C)[C@]1(O)CC[C@@]2(O)[C@@](C)(O)C1CC(C)=C(C)C(=O)O1 (some centres not stated) | > 5 µM | > 5 µM | > 5 µM |  |  |  |  |
